EC50 data for 30 molecules are collected here from US12291529B2, “Heterocyclic GLP-1 agonists” (Gasherbrum Bio, Inc., priority 2023, dated 2025).

Usually EC50 stands for the concentration needed to bring the measured effect to its halfway point. A lower EC50 goes with a more potent agent.

In this test the target is GLP-1 Receptor (Homo sapiens, UniProt P43220). Nature of the test: GLP-1R agonist cAMP stimulation assay (HEK293/GLP1R/CRE-LUC cells, Cisbio cAMP dynamic 2 kit). It is filed as cell-based. As to conditions: Table 3, HEK293/GLP1R/CRE-LUC cells, 30 min. As for the experimental part: Activation of GLP-1 receptor is known to stimulate cyclic AMP (cAMP) production in cells which indicates primary coupling to the G as subunit of the G protein heterotrimeric complex.
Chain of GLP-1 Receptor (P43220 24-463, species assumed): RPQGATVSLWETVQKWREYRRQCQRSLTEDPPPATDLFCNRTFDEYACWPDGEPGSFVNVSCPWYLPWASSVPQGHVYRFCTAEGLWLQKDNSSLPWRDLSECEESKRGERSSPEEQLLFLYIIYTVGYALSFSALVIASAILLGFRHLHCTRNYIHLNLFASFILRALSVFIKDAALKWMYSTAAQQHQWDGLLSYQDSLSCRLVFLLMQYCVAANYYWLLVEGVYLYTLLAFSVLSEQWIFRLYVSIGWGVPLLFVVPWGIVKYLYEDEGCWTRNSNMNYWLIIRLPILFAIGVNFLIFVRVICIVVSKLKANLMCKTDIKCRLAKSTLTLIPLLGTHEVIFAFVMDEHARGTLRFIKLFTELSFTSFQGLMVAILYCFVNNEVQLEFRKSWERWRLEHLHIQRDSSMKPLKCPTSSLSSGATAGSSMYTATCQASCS
To optimize functional activity directed toward G as coupling, a HEK293/CRE-Luc cell line developed by HDB stably expressing the GLP-1 Receptor was used. 200× concentration of compound working solutions were prepared (Agilent Technologies Bravo) with ½ log serial dilution in 384-well Echo LDV plate (Labcyte, CatOLP-0200). 50 nL/well 200× concentration of compound working solutions were moved to 384-well white low volume plate (Greiner, Cat4784075) using Labcyte ECH0550.1×10^5 cells/mL HEK293/GLP1R/CRE-LUC (HD Biosciences) cell suspensions prepared with assay buffer (DPBS containing 0.5 mM IBMX (Sigma, Cat15879) and 0.10 BSA (GENVIEW, Cat4FA016-100g)), 10 uL cell suspensions were added to each well of previous generated assay plate which already contains 50 n^1 compound at 200 xconcentration using ThermioFisher Multidrop Combi (1000 cells/well). Seal the plate and incubate at 37 with […] for 30 m.
After incubation the cAMP assay signal was generated using cAMP dynamic 2 Kit (Cisbio). 5 μL cAMP-d2 working solution was added to each well, followed with 5 L Anti-cAMP antibody-cryptate working solution added to each well using ThermoFisher Multidrop Combi. Incubate at room temperature for 1 hour protected from light. Read the fluorescence at 665 and 615 nm with Reader PerkinElmer EnVision. % oActivity=100%×(mean RLU of test sample−mean RLU of vehicle control)/(mean RLU of MAX control−mean RLU of vehicle control)
`CN=S(C)(=O)c1ccc(-n2ccn(-c3c4c(nn3-c3cc(C)c(F)c(C)c3)CCN(C(=O)c3cc5cc(C6CCOCC6)ccc5n3[C@@]3(c5noc(=O)[nH]5)C[C@@H]3C)[C@H]4C)c2=O)cc1` (single isomer, unassigned) [Compound 112]: the EC50 worked out at 0.057 nM.
For `Cc1cc(-n2nc3c(c2-n2ccn(-c4ccc(S(C)(=O)=NC#N)cc4)c2=O)[C@H](C)N(C(=O)c2cc4cc(C5CCOCC5)ccc4n2[C@@]2(c4noc(=O)[nH]4)C[C@@H]2C)CC3)cc(C)c1F` (single isomer, unassigned) [Compound 113] the value was 0.035 nM.
Turning to `Cc1cc(-n2nc3c(c2-n2ccn(-c4ccc(S(C)(=N)=O)cc4)c2=O)[C@H](C)N(C(=O)c2cc4cc(C5CCOCC5)ccc4n2[C@@]2(c4noc(=O)[nH]4)C[C@@H]2C)CC3)cc(C)c1F` (single isomer, unassigned) [Compound 114], the midpoint of the response, the EC50, lay at 0.017 nM.
Take `Cc1cc(-n2nc3c(c2-n2ccn(-c4ccc(S(C)(=N)=O)cc4)c2=O)[C@H](C)N(C(=O)c2cc4cc(C5CCOCC5)ccc4n2[C@@]2(c4noc(=O)[nH]4)C[C@@H]2C)CC3)cc(C)c1F` (single isomer, unassigned) [Compound 115]: the EC50 is 0.049 nM.
For `CCS(=N)(=O)c1ccc(-n2ccn(-c3c4c(nn3-c3cc(C)c(F)c(C)c3)CCN(C(=O)c3cc5cc(C6CCOCC6)ccc5n3[C@@]3(c5noc(=O)[nH]5)C[C@@H]3C)[C@H]4C)c2=O)cc1` (single isomer, unassigned) [Compound 116] the value was 0.049 nM; for `CCS(=N)(=O)c1ccc(-n2ccn(-c3c4c(nn3-c3cc(C)c(F)c(C)c3)CCN(C(=O)c3cc5cc(C6CCOCC6)ccc5n3[C@@]3(c5noc(=O)[nH]5)C[C@@H]3C)[C@H]4C)c2=O)cc1` (single isomer, unassigned) [Compound 117], 0.011 nM; for `Cc1cc(-n2nc3c(c2-n2ccn(-c4ccc(S(C)(=O)=NC#N)cc4)c2=O)[C@H](C)N(C(=O)c2cc4cc(C5CCOCC5)ccc4n2[C@@]2(c4noc(=O)[nH]4)C[C@@H]2C)CC3)cc(C)c1F` (single isomer, unassigned) [Compound 122], 0.046 nM.
For `Cc1cc(-n2nc3c(c2-n2ccn(-c4ccc(S5(=O)=NCCC5)cc4)c2=O)[C@H](C)N(C(=O)c2cc4cc(C5CCOCC5)ccc4n2C2(c4nsc(=O)[nH]4)CC2)CC3)cc(C)c1F` (single isomer, unassigned) [Compound 130] the value was 0.23 nM; for `Cc1cc(-n2nc3c(c2-n2ccn(-c4ccc(S5(=O)=NCCC5)cc4)c2=O)[C@H](C)N(C(=O)c2cc4cc(C5CCOCC5)ccc4n2C2(c4nsc(=O)[nH]4)CC2)CC3)cc(C)c1F` (single isomer, unassigned) [Compound 131], 0.05 nM.
For `CCS(=N)(=O)c1ccc(-n2ccn(-c3c4c(nn3-c3cc(C)c(F)c(C)c3)CCN(C(=O)c3sc5cc(C6CCOCC6)ccc5c3C3(c5noc(=O)[nH]5)CC3)[C@H]4C)c2=O)cc1` (single isomer, unassigned) [Compound 132] the value was 0.98 nM; for `Cc1cc(-n2nc3c(c2-n2ccn(-c4ccc(S(=N)(=O)C5CC5)cc4)c2=O)[C@H](C)N(C(=O)c2cc4cc(C5CCOCC5)ccc4n2[C@@]2(c4noc(=O)[nH]4)C[C@@H]2C)CC3)cc(C)c1F` (single isomer, unassigned) [Compound 134], 0.0051 nM.
`Cc1cc(-n2nc3c(c2-n2ccn(-c4ccc(S(=N)(=O)C5CC5)cc4)c2=O)[C@H](C)N(C(=O)c2cc4cc(C5CCOCC5)ccc4n2[C@@]2(c4noc(=O)[nH]4)C[C@@H]2C)CC3)cc(C)c1F` (single isomer, unassigned) [Compound 135] displayed an EC50 of 0.001 nM.
Molecule `CCS(=N)(=O)c1ccc(-n2ccn(-c3c4c(nn3-c3cc(C)c(F)c(C)c3)CCN(C(=O)c3cc5cc(C6CCOCC6)ccc5n3[C@@]3(c5noc(=O)[nH]5)C[C@@H]3C)[C@H]4C)c2=O)c(Cl)c1` (single isomer, unassigned) [Compound 136] gave an EC50 of 0.047 nM.
For `CCS(=N)(=O)c1ccc(-n2ccn(-c3c4c(nn3-c3cc(C)c(F)c(C)c3)CCN(C(=O)c3cc5cc(C6CCOCC6)ccc5n3[C@@]3(c5noc(=O)[nH]5)C[C@@H]3C)[C@H]4C)c2=O)c(Cl)c1` (single isomer, unassigned) [Compound 137] the value was 0.15 nM; for `CCS(=N)(=O)c1ccc(-n2ccn(-c3c4c(nn3-c3cc(C)c(F)c(C)c3)CCN(C(=O)c3cc5cc(C6CCOCC6)ccc5n3[C@@]3(c5noc(=O)[nH]5)C[C@@H]3C)[C@H]4C)c2=O)c(F)c1` (single isomer, unassigned) [Compound 138], 0.001 nM.
In the case of `CCS(=N)(=O)c1ccc(-n2ccn(-c3c4c(nn3-c3cc(C)c(F)c(C)c3)CCN(C(=O)c3cc5cc(C6CCOCC6)ccc5n3[C@@]3(c5noc(=O)[nH]5)C[C@@H]3C)[C@H]4C)c2=O)c(F)c1` (single isomer, unassigned) [Compound 139], the EC50 amounted to 0.062 nM.
For `CCS(=N)(=O)c1ccc(-n2ccn(-c3c4c(nn3-c3cc(C)c(F)c(C)c3)CCN(C(=O)c3cc5cc(C6CCOCC6)ccc5n3[C@@]3(c5noc(=O)[nH]5)C[C@@H]3C)[C@H]4C)c2=O)cn1` (single isomer, unassigned) [Compound 140] the value was 0.099 nM; for `CCS(=N)(=O)c1ccc(-n2ccn(-c3c4c(nn3-c3cc(C)c(F)c(C)c3)CCN(C(=O)c3cc5cc(C6CCOCC6)ccc5n3[C@@]3(c5noc(=O)[nH]5)C[C@@H]3C)[C@H]4C)c2=O)cn1` (single isomer, unassigned) [Compound 141], 0.022 nM; for `Cc1nnc(C2(n3c(C(=O)N4CCc5nn(-c6cc(C)c(F)c(C)c6)c(-n6ccn(-c7ccc(S8(=O)=NCCC8)cc7)c6=O)c5[C@@H]4C)cc4cc(C5CCOCC5)ccc43)CC2)o1` (single isomer, unassigned) [Compound 155], 0.99 nM.
In turn, `Cc1nnc(C2(n3c(C(=O)N4CCc5nn(-c6cc(C)c(F)c(C)c6)c(-n6ccn(-c7ccc(S8(=O)=NCCC8)cc7)c6=O)c5[C@@H]4C)cc4cc(C5CCOCC5)ccc43)CC2)o1` (single isomer, unassigned) [Compound 156] had an EC50 of 1.5 nM.
The molecule `Cc1nnc(Cn2c(C(=O)N3CCc4nn(-c5cc(C)c(F)c(C)c5)c(-n5ccn(-c6ccc(S7(=O)=NCCC7)cc6)c5=O)c4[C@@H]3C)cc3cc(C4CCOCC4)ncc32)o1` (single isomer, unassigned) [Compound 159] had a concentration giving a half-maximal response (EC50) of 5.9 nM.
For `CCS(=O)(=NC)c1ccc(-n2ccn(-c3c4c(nn3-c3cc(C)c(F)c(C)c3)CCN(C(=O)c3cc5cc(C6CCOCC6)ccc5n3C[C@@H]3CCO3)[C@H]4C)c2=O)cc1` (single isomer, unassigned) [Compound 162] the value was 3.2 nM.
`CCS(=O)(=NC)c1ccc(-n2ccn(-c3c4c(nn3-c3cc(C)c(F)c(C)c3)CCN(C(=O)c3cc5cc(C6CCOCC6)ccc5n3C[C@H]3CCO3)[C@H]4C)c2=O)cc1` (single isomer, unassigned) [Compound 165] displayed an EC50 of 9.9 nM.
The molecule `CCS(=N)(=O)c1ccc(-n2ccn(-c3c4c(nn3-c3ccc(F)c(C5CC5)c3)CCN(C(=O)c3cc5cc(C6CCOCC6)ccc5n3[C@@]3(c5noc(=O)[nH]5)C[C@@H]3C)[C@H]4C)c2=O)c(F)c1` (single isomer, unassigned) [Compound 166] displayed an EC50 of 0.019 nM.
In turn, `CCS(=N)(=O)c1ccc(-n2ccn(-c3c4c(nn3-c3ccc(F)c(C5CC5)c3)CCN(C(=O)c3cc5cc(C6CCOCC6)ccc5n3[C@@]3(c5noc(=O)[nH]5)C[C@@H]3C)[C@H]4C)c2=O)c(F)c1` (single isomer, unassigned) [Compound 167] registered an EC50 of 0.12 nM.
For `Cc1cc(-n2nc3c(c2-n2ccn(-c4ccc(S(=N)(=O)C5CCC5)cc4F)c2=O)[C@H](C)N(C(=O)c2cc4cc(C5CCOCC5)ccc4n2[C@@]2(c4noc(=O)[nH]4)C[C@@H]2C)CC3)cc(C)c1F` (single isomer, unassigned) [Compound 169] the value was 0.07 nM.
For `CCS(=O)(=NC)c1ccc(-n2ccn(-c3c4c(nn3-c3cc(C)c(F)c(C)c3)CCN(C(=O)c3cc5cc(C6CCOCC6)ccc5n3Cc3cnc(C)cn3)[C@H]4C)c2=O)c(F)c1` (single isomer, unassigned) [Compound 170] the value was 1.8 nM; for `CCS(=O)(=NC)c1ccc(-n2ccn(-c3c4c(nn3-c3cc(C)c(F)c(C)c3)CCN(C(=O)c3cc5cc(C6CCOCC6)ccc5n3Cc3ccc(C)nc3)[C@H]4C)c2=O)c(F)c1` (single isomer, unassigned) [Compound 171], 8.8 nM.
For `Cc1cc(-n2nc3c(c2-n2ccn(-c4ccc(S5(=O)=NCCC5)cc4)c2=O)[C@H](C)N(C(=O)c2cc4cc(C5CCOCC5)ccc4n2C2(c4nnn[nH]4)CC2)CC3)cc(C)c1F` (single isomer, unassigned) [Compound 172] the value was 0.037 nM.
`CC[C@H]1C[C@]1(c1noc(=O)[nH]1)n1c(C(=O)N2CCc3nn(-c4cc(C)c(F)c(C)c4)c(-n4ccn(-c5ccc(S(=N)(=O)CC)cc5F)c4=O)c3[C@@H]2C)cc2cc(C3CCOCC3)ccc21` (single isomer, unassigned) [Compound 173] gave a 50% effective concentration (EC50) of 0.012 nM.
